Laboratory results published in US20230111310A1, “CARBOXYLIC ACID DERIVATIVE-SUBSTITUTED IMINO ARYL COMPOUND, PREPARATION METHOD THEREFOR, HERBICIDAL COMPOSITION AND USE THEREOF” (Qingdao Kingagroot Chemical Compound Co., Ltd., priority 2020, published 2023).

How the values were obtained:
Assay in all cases: Weeding effect in post-emergence stage
Type in all cases: in vivo
Digitaria sanguinalis = settings: Dose 15 g/ha; for Weeding effect in post-emergence stage, Digitaria sanguinalis: level of fresh weight growth control rate; for Weeding effect in post-emergence stage, Digitaria sanguinalis (level): fresh weight control rate level
Summary of the method: (§1)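 Pot-grown greenhouse plants sprayed at 2–3 leaf stage, 2 weeks after sowing, with compound in acetone/Tween 80 plus methyl oleate emulsifiable concentrate (1.5 liter/ha) at 500–7.5 g/ha. Growth control rated 3 weeks after treatment; mean of three replicates.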

Setaria viridis = settings: Dose 15 g/ha; for Weeding effect in post-emergence stage, Setaria viridis: level of fresh weight growth control rate; for Weeding effect in post-emergence stage, Setaria viridis (level): fresh weight control rate level
Summary of the method: as §1

Alopecurus japonicus = settings: Dose 15 g/ha; for Weeding effect in post-emergence stage, Alopecurus japonicus: level of fresh weight growth control rate; for Weeding effect in post-emergence stage, Alopecurus japonicus (level): fresh weight control rate level
Summary of the method: as §1

Abutilon theophrasti = settings: Dose 15 g/ha; for Weeding effect in post-emergence stage, Abutilon theophrasti: level of fresh weight growth control rate; for Weeding effect in post-emergence stage, Abutilon theophrasti (level): fresh weight control rate level
Summary of the method: as §1

Eleusine indica = settings: Dose 15 g/ha; for Weeding effect in post-emergence stage, Eleusine indica: level of fresh weight growth control rate; for Weeding effect in post-emergence stage, Eleusine indica (level): fresh weight control rate level
Summary of the method: as §1

Echinochloa crusgalli = settings: Dose 15 g/ha; for Weeding effect in post-emergence stage, Echinochloa crusgalli: level of fresh weight growth control rate; for Weeding effect in post-emergence stage, Echinochloa crusgalli (level): fresh weight control rate level
Summary of the method: as §1

Row | Compound | Weeding effect in post-emergence stage, Digitaria sanguinalis (Digitaria sanguinalis) | Weeding effect in post-emergence stage, Setaria viridis (Setaria viridis) | Weeding effect in post-emergence stage, Alopecurus japonicus (Alopecurus japonicus) | Weeding effect in post-emergence stage, Abutilon theophrasti (Abutilon theophrasti) | Weeding effect in post-emergence stage, Eleusine indica (Eleusine indica) | Weeding effect in post-emergence stage, Echinochloa crusgalli (Echinochloa crusgalli) | Weeding effect in post-emergence stage, Digitaria sanguinalis (level) (Digitaria sanguinalis) | Weeding effect in post-emergence stage, Setaria viridis (level) (Setaria viridis) | Weeding effect in post-emergence stage, Alopecurus japonicus (level) (Alopecurus japonicus) | Weeding effect in post-emergence stage, Abutilon theophrasti (level) (Abutilon theophrasti) | Weeding effect in post-emergence stage, Eleusine indica (level) (Eleusine indica) | Weeding effect in post-emergence stage, Echinochloa crusgalli (level) (Echinochloa crusgalli)
1 | C=CCCOC(=O)[C@@H](C)O/N=C/c1cc(-n2c(=O)cc(C(F)(F)F)n(C)c2=O)c(F)cc1Cl [209(R)] | 5 (Level 5: growth control rate is above 85%) | 5 (Level 5: growth control rate is above 85%) | 5 (Level 5: growth control rate is above 85%) | 5 (Level 5: growth control rate is above 85%) | 5 (Level 5: growth control rate is above 85%) | 5 (Level 5: growth control rate is above 85%) |  |  |  |  |  | 
2 | C[C@@H](O/N=C/c1cc(-n2c(=O)cc(C(F)(F)F)n(C)c2=O)c(F)cc1Cl)C(=O)OCc1ccc(Cl)nc1 [495(R)] |  |  |  |  |  |  | 5 (Level 5: growth control rate is above 85%) | 5 (Level 5: growth control rate is above 85%) | 5 (Level 5: growth control rate is above 85%) | 5 (Level 5: growth control rate is above 85%) | 5 (Level 5: growth control rate is above 85%) | 5 (Level 5: growth control rate is above 85%)
3 | COC(=O)C(C)O/N=C/c1cc(N2C(=O)CC(N)(C(F)(F)F)N(C)C2=O)c(F)cc1Cl (stereo not drawn) [Compound 432] |  |  |  |  |  |  | 5 (Level 5: growth control rate is above 85%) | 5 (Level 5: growth control rate is above 85%) | 5 (Level 5: growth control rate is above 85%) | 5 (Level 5: growth control rate is above 85%) | 5 (Level 5: growth control rate is above 85%) | 5 (Level 5: growth control rate is above 85%)
4 | CCCOC(=O)[C@@H](C)O/N=C/c1cc(-n2c(=O)n(C)c(=S)n(C)c2=O)c(F)cc1Cl [4(R)] | 5 (Level 5: growth control rate is above 85%) | 5 (Level 5: growth control rate is above 85%) | 5 (Level 5: growth control rate is above 85%) | 5 (Level 5: growth control rate is above 85%) | 5 (Level 5: growth control rate is above 85%) | 5 (Level 5: growth control rate is above 85%) |  |  |  |  |  | 
5 | CC(O/N=C/c1cc(-n2c(=O)cc(C(F)(F)F)n(C)c2=O)c(F)cc1Cl)C(=O)OC/C=C/Cl (racemic) [Compound 225] | 5 (Level 5: growth control rate is above 85%) | 5 (Level 5: growth control rate is above 85%) | 4 (Level 4: growth control rate is greater than or equal to 60% and less than 85%) | 5 (Level 5: growth control rate is above 85%) | 5 (Level 5: growth control rate is above 85%) | 5 (Level 5: growth control rate is above 85%) |  |  |  |  |  | 
6 | CC(C)OC(=O)C(C)O/N=C/c1cc(-n2c(=O)n(C)c(=S)n(C)c2=O)c(F)cc1Cl (racemic) [Compound 5] | 5 (Level 5: growth control rate is above 85%) | 5 (Level 5: growth control rate is above 85%) | 5 (Level 5: growth control rate is above 85%) | 5 (Level 5: growth control rate is above 85%) | 5 (Level 5: growth control rate is above 85%) | 5 (Level 5: growth control rate is above 85%) |  |  |  |  |  | 
